# Measurements as given in BindingDB's records for doi:10.1016/S0960-894X(97)10088-9 (1997).
# Test: Compound was evaluated for inhibitory activity against Isoleucyl-tRNA synthetase
row,IC50,Compound
1,0.3 µM,"COC(=O)CCCCCCCCOC(=O)/C=C/C[C@@H]1OC[C@H](NS(=O)(=O)c2cccc(Cl)c2)[C@@H](O)[C@H]1O [9-{(E)-4-[(2S,3R,4R,5S)-5-(3-Chloro-benzenesulfonylamino)-3,4-dihydroxy-tetrahydro-pyran-2-yl]-but-2-enoyloxy}-nonanoic acid methyl ester]"
2,0.3 µM,"CCCCS(=O)(=O)N[C@H]1CO[C@@H](C/C=C/C(=O)OCCCCCCCCC(=O)OC)[C@H](O)[C@@H]1O [9-{(E)-4-[(2S,3R,4R,5S)-5-(Butane-1-sulfonylamino)-3,4-dihydroxy-tetrahydro-pyran-2-yl]-but-2-enoyloxy}-nonanoic acid methyl ester]"
3,0.1 µM,"COC(=O)CCCCCCCCOC(=O)/C=C/C[C@@H]1OC[C@H](NS(=O)(=O)CCCCl)[C@@H](O)[C@H]1O [9-{(E)-4-[(2S,3R,4R,5S)-5-(3-Chloro-propane-1-sulfonylamino)-3,4-dihydroxy-tetrahydro-pyran-2-yl]-but-2-enoyloxy}-nonanoic acid methyl ester]"
